The record followed here is ChEMBL document CHEMBL1147896, “Small molecule inhibitors of E. coli primase, a novel bacterial target” (Bioorg Med Chem Lett, 2007).

The structures appear in SMILES notation. In brackets after ≈: the same amount, converted by molar mass.

One may read the IC50 as the point on the concentration scale where inhibition reaches its midpoint. Low values mean greater potency, high ones weaker potency. By MIC is commonly meant the smallest concentration in the dilution series that meets the test's criterion for growth inhibition. A higher MIC goes with weaker potency.

The nature of assay [1]: Inhibition of Escherichia coli primase by scintillation proximity assay. On the technique in general: SPA uses beads or plates that emit light when radiolabelled molecules are held near them.
For another assay, the system named is Escherichia coli. Kind of assay: Antibacterial activity against Escherichia coli. Type of assay: functional.

`CN1CCN(c2ncnc3c2oc2ccccc23)CC1` showed an IC50 in assay [1] of 85.1 µM. Moreover, the MIC in the assay on Escherichia coli is 64 µg/mL (≈ 239 µM).
In assay [1], `CC(C)c1nc2sc3c(NCCN(C)C)ncnc3c2c2c1CCCC2` yielded an IC50 of 61 µM. This compound gave an MIC against Escherichia coli of 16 µg/mL (≈ 43.3 µM).
The matching figures for `CCN(CC)CCNc1nc(SC)nc2c1sc1nc(C(C)C)c3c(c12)CCC3`: 36 µM and greater than 64 µg/mL.
For `CCN(CC)CCNc1nc(SC)nc2c1sc1nc(N3CCOCC3)c3c(c12)CC(C)(C)OC3`, the IC50 in assay [1] came out at 45 µM. In addition, in the assay with Escherichia coli, the MIC was 64 µg/mL (≈ 124 µM).
The matching figures for `Cc1ccc(-c2cn3c4ccccc4n(CCN4CCCCC4)c3n2)cc1`: 99.5 µM and 64 µg/mL (≈ 179 µM).
In the same order, the values of `COc1ccc(-c2cn3c4ccccc4n(CCN4CCCCC4)c3n2)cc1` are 162 µM and greater than 64 µg/mL.
The matching figures for `c1ccc(-c2cn3c4ccccc4n(CCN4CCCCC4)c3n2)cc1`: 18.4 µM and 64 µg/mL (≈ 186 µM).
In turn, `CN1CCN(c2nc(Nc3cccc(O)c3)nc3ccccc23)CC1` came in with an IC50 in assay [1] of 50.5 µM. Further, in the assay on Escherichia coli, the MIC was greater than 64 µg/mL.
In the same order, the values of `CN1CCN(c2nc(-c3ccccc3O)nc3ccccc23)CC1` are 7.2 µM and greater than 64 µg/mL.
The matching figures for `CCN1CCN(c2nc(-c3ccncc3)nc3ccccc23)CC1`: 27.3 µM and greater than 64 µg/mL.
The matching figures for `CN(C)CCOc1nc(-c2ccccc2)nc2c1oc1ccccc12`: 3.4 µM and 4 µg/mL (≈ 12 µM).
In turn, `CSc1nc(NCCN(C)C)c2sc3nc(CC(C)C)c4c(c3c2n1)CC(C)(C)OC4` gave an IC50 in assay [1] of 79.2 µM. In the assay with Escherichia coli, this compound had an MIC greater than 64 µg/mL.
In the same order, the values of `CCCCc1nc2sc3c(NCCN(C)C)nc(SC)nc3c2c2c1CCC2` are 103 µM and 8 µg/mL (≈ 19.2 µM).
Take `CN1CCN(c2nc(-c3ccccc3)nc3c2oc2ccccc23)CC1`: in assay [1], the half-maximal inhibitory concentration (IC50) was determined as 42.5 µM. In the assay on Escherichia coli, this compound came in with a minimal inhibitory concentration (MIC) greater than 64 µg/mL.
`CN1CCN(c2nc(-c3ccc(Cl)cc3)nc3c2oc2ccccc23)CC1`: in assay [1], the IC50 was greater than 200 µM. The minimum inhibitory concentration (MIC) against Escherichia coli is greater than 64 µg/mL.
In the same order, the values of `CSc1nc(NCCN(C)C)c2sc3nc(C(C)C)c4c(c3c2n1)CCC4` are 26.6 µM and 8 µg/mL (≈ 19.9 µM).
Take `CCN1CCN(c2nc(SC)nc3c2sc2nc(C(C)C)c4c(c23)CCC4)CC1`: the IC50 in assay [1] is greater than 200 µM. Besides, the minimum inhibitory concentration (MIC) with Escherichia coli is greater than 64 µg/mL.
The matching figures for `CCc1nc(N2CCN(CC)CC2)c2oc3ccccc3c2n1`: 170 µM and greater than 64 µg/mL.
The matching figures for `c1ccc2c(c1)oc1c(N3CCN(C4CCCC4)CC3)ncnc12`: 122 µM and greater than 64 µg/mL.
In the same order, the values of `c1csc(-c2cn3c4ccccc4n(CCN4CCCCC4)c3n2)c1` are 32.3 µM and 64 µg/mL (≈ 183 µM).
In turn, `CN(C)CCNc1cc(-c2ccncc2)nc(-c2ccccn2)n1` displayed an IC50 in assay [1] of 44.7 µM. This compound also showed a minimum inhibitory concentration (MIC) against Escherichia coli greater than 64 µg/mL.
The matching figures for `CCN(CC)CCNc1nc(SC)nc2c1sc1nc(C)c3c(c12)CC(C)(C)OC3`: 16.9 µM and 32 µg/mL (≈ 71.8 µM).
In the same order, the values of `OCCN1CCN(c2ncnc3c2oc2ccccc23)CC1` are 138 µM and 64 µg/mL (≈ 215 µM).
With `CSc1nc(NCCN(C)C)c2sc3nc(CC(C)C)c4c(c3c2n1)CCC4`, the half-inhibitory concentration (IC50) in assay [1] worked out at 22 µM. For the same compound, the MIC in the assay on Escherichia coli turned out to be 4 µg/mL (≈ 9.62 µM).
In the same order, the values of `CSc1nc(NCCN2CCOCC2)c2sc3nc(C(C)C)c4c(c3c2n1)CCC4` are greater than 200 µM and greater than 64 µg/mL.
